Laboratory results from patent publication US7718688B2, “Nitrobenzindoles and their use in cancer therapy” (Auckland Uniservices Limited, priority 2004, dated 2010).
pIC50: −log10 of the molar value. Structures can show the parent of a compound that is named as a salt.

What was measured:
[1] = test system: HT29: human colon cancer cell line; test: Proliferation IC50 assay, oxic/hypoxic, HT29; type: cell-based; details: for pIC50: Homo sapiens, HT-29, 4 h exposure under aerobic conditions; for HCR (hypoxic cytotoxicity ratio) HT29: IC50(aerobic)/IC10(hypoxic); for HCR HT29: IC50(aerobic)/IC50(hypoxic)
[2] = test system: SKOV3: human ovarian carcinoma cell line; test: Proliferation IC50 assay, oxic/hypoxic, SKOV3; type: cell-based; details: for pIC50: Homo sapiens, SK-OV-3, 4 h exposure under aerobic conditions; for HCR (hypoxic cytotoxicity ratio) SKOV3: IC50(aerobic)/IC10(hypoxic); for HCR SKOV3: IC50(aerobic)/IC50(hypoxic)

Row | Compound | melting point | pIC50 ([1]; Table 3) | HCR (hypoxic cytotoxicity ratio) HT29 ([1]; Table 3) | pIC50 ([2]; Table 3) | HCR (hypoxic cytotoxicity ratio) SKOV3 ([2]; Table 3) | pIC50 ([1]; Table 4) | HCR HT29 ([1]; Table 4) | pIC50 ([2]; Table 4) | HCR SKOV3 ([2]; Table 4)
1 | CN(C)CCOc1ccc2[nH]c(C(=O)N3CC(CCl)c4c3cc([N+](=O)[O-])c3ccc(S(C)(=O)=O)cc43)cc2c1 (stereo not drawn) (as salt: HCl) [Compound 47, 1-(Chloromethyl)-3-{5-[2-(dimethylamino)ethoxy]indol-2-carbonyl}-8-(methylsulfonyl)-5-nitro-1,2-dihydro-3H-benzo[e]indole] | > 300 °C |  |  |  |  |  |  |  | 
2 | CN(C)CCOc1ccc2[nH]c(C(=O)N3CC(CCl)c4c3cc([N+](=O)[O-])c3cccc([N+](=O)[O-])c43)cc2c1 (stereo not drawn) (as salt: HCl) [Compound 52, 1-(Chloromethyl)-3-{5-[2-(dimethylamino)ethoxy]indol-2-carbonyl}-5,9-dinitro-1,2-dihydro-3H-benzo[e]indole] | 187 to 191 °C |  |  |  |  |  |  |  | 
3 | CN(C)CCOc1ccc2[nH]c(C(=O)N3CC(CCl)c4c3cc([N+](=O)[O-])c3ccc(C(N)=O)cc43)cc2c1 (stereo not drawn) (as salt: TFA) [Compound 43, 1-(Chloromethyl)-3-{5-[2-(dimethylamino)ethoxy]indol-2-carbonyl}-5-nitro-1,2-dihydro-3H-benzo[e]indole-8-carboxamide] | > 320 °C |  |  |  |  |  |  |  | 
4 | COc1cc2cc(C(=O)N3CC(CCl)c4c3cc([N+](=O)[O-])c3c([N+](=O)[O-])cccc43)[nH]c2c(OC)c1OC (stereo not drawn) [Compound 1, 1-(Chloromethyl)-5,6-dinitro-3-(5,6,7-trimethoxyindol-2-carbonyl)-1,2-dihydro-3H-benzo[e]indole] | 278 to 279 °C | 4.74 | <1 | < 4.70 |  |  |  |  | 
5 | COc1cc2cc(C(=O)N3CC(CCl)c4c3cc([N+](=O)[O-])c3c(C(C)=O)cccc43)[nH]c2c(OC)c1OC (stereo not drawn) [Compound 3, 6-Acetyl-1-(chloromethyl)-5-nitro-3-(5,6,7-trimethoxyindol-2-carbonyl)-1,2-dihydro-3H-benzo[e]indole] | 180 to 183 °C | 6.17 | 2.0 | 6.30 | 3.4 |  |  |  | 
6 | CN(C)CCOc1ccc2[nH]c(C(=O)N3CC(CCl)c4c3cc([N+](=O)[O-])c3cc(N)ccc43)cc2c1 (stereo not drawn) [Compound 10, 7-Amino-1-(chloromethyl)-3-{5-[2-(dimethylamino)ethoxy]indol-2-carbonyl}-5-nitro-1,2-dihydro-3H-benzo[e]indole] | > 300 °C | 5.74 | 2.4 | 5.60 | 2.0 |  |  |  | 
7 | CC(=O)c1ccc2c3c(cc([N+](=O)[O-])c2c1)N(C(=O)c1cc2cc(OCCN(C)C)ccc2[nH]1)CC3CCl (stereo not drawn) [Compound 12, 7-Acetyl-1-(chloromethyl)-3-{5-[2-(dimethylamino)ethoxy]indol-2-carbonyl}-5-nitro-1,2-dihydro-3H-benzo[e]indole] | > 350 °C | 6.77 | 1.5 | 6.19 | 4.0 |  |  |  | 
8 | COC(=O)c1ccc2c3c(cc([N+](=O)[O-])c2c1)N(C(=O)c1cc2cc(OC)c(OC)c(OC)c2[nH]1)CC3CCl (stereo not drawn) [Compound 13, Methyl 1-(chloromethyl)-3-(5,6,7-trimethoxyindol-2-carbonyl)-5-nitro-1,2-dihydro-3H-benzo[e]indole-7-carboxylate] | 256 to 257 °C | 5.72 | 3.2 | 5.96 | 4.0 |  |  |  | 
9 | COc1cc2cc(C(=O)N3CC(CCl)c4c3cc([N+](=O)[O-])c3cc(C(N)=O)ccc43)[nH]c2c(OC)c1OC (stereo not drawn) [Compound 15, 1-(Chloromethyl)-5-nitro-3-[5,6,7-trimethoxyindol-2-carbonyl]-1,2-dihydro-3H-benzo[e]indole-7-carboxamide] | 287 to 289 °C | 5.10 | 2.8 | 5.24 | 6.1 |  |  |  | 
10 | COc1cc2cc(C(=O)N3CC(CCl)c4c3cc([N+](=O)[O-])c3cc(C(=O)NCCO)ccc43)[nH]c2c(OC)c1OC (stereo not drawn) [Compound 17, 1-(Chloromethyl)-N-(2-hydroxyethyl)-5-nitro-3-(5,6,7-trimethoxyindol-2-carbonyl)-1,2-dihydro-3H-benzo[e]-indole-7-carboxamide] | 244 to 245 °C | 5.24 | 1.7 |  |  |  |  |  | 
11 | COc1ccc(/C=C/C(=O)N2CC(CCl)c3c2cc([N+](=O)[O-])c2cc(C(=O)NCCO)ccc32)cc1 (stereo not drawn) [Compound 18, 1-(Chloromethyl)-N-(2-hydroxyethyl)-3-[(E)-4-methoxycinnamoyl]-5-nitro-1,2-dihydro-3H-benzo[e]indole7-carboxamide] | 240 to 241 °C | 5.36 | 4.4 | 5.32 | 4.7 |  |  |  | 
12 | COc1cc2cc(C(=O)N3CC(CCl)c4c3cc([N+](=O)[O-])c3cc(S(C)(=O)=O)ccc43)[nH]c2c(OC)c1OC (stereo not drawn) [Compound 23, 1-(Chloromethyl)-7-(methylsulfonyl)-5-nitro-3-(5,6,7-trimethoxyindol-2-carbonyl)-1,2-dihydro-3H-benzo[e]indole] | 296 to 297 °C (dec.) | 4.85 | 2.0 | 4.77 | 1.9 |  |  |  | 
13 | COc1ccc(/C=C/C(=O)N2CC(CCl)c3c2cc([N+](=O)[O-])c2cc(S(N)(=O)=O)ccc32)cc1O (stereo not drawn) [Compound 27, 1-(Chloromethyl)-3-[(2E)-3-(3-hydroxy-4-methoxyphenyl)-2-propenoyl]-5-nitro-1,2-dihydro-3H-benzo[e]indole-7-sulfonamide] | 220 to 225 °C | 5.62 | 1.8 | 4.89 | 31 |  |  |  | 
14 | COc1cc2cc(C(=O)N3CC(CCl)c4c3cc([N+](=O)[O-])c3cc(S(=O)(=O)NCCO)ccc43)[nH]c2c(OC)c1OC (stereo not drawn) [Compound 33, 1-(Chloromethyl)-N-(2-hydroxyethyl)-5-nitro-3-(5,6,7-trimethoxyindol-2-carbonyl)-1,2-dihydro-3H-benzo[e]indole-7-sulfonamide] | 257 to 258 °C |  |  | 4.89 | 5.8 |  |  |  | 
15 | COc1ccc(/C=C/C(=O)N2CC(CCl)c3c2cc([N+](=O)[O-])c2cc(S(=O)(=O)NCCO)ccc32)cc1 (stereo not drawn) [Compound 37, 1-(Chloromethyl)-N-(2-hydroxyethyl)-3-[(E)-4-methoxycinnamoyl]-5-nitro-1,2-dihydro-3H-benzo[e]indole-7-sulfonamide] | 250 to 251 °C | 5.32 | 1.3 | 5.33 | 3.4 |  |  |  | 
16 | CC(=O)c1ccc2c([N+](=O)[O-])cc3c(c2c1)C(CCl)CN3C(=O)c1cc2cc(OCCN(C)C)ccc2[nH]1 (stereo not drawn) [Compound 41, 8-Acetyl-1-(chloromethyl)-3-{5-[2-(dimethylamino)ethoxy]indol-2-carbonyl}-5-nitro-1,2-dihydro-3H-benzo[e]indole] | 210 to 215 °C | 6.82 | 1.1 | 6.70 | 1.3 |  |  |  | 
17 | COc1cc2cc(C(=O)N3CC(CCl)c4c3cc([N+](=O)[O-])c3ccc(S(C)(=O)=O)cc43)[nH]c2c(OC)c1OC (stereo not drawn) [Compound 46, 1-(Chloromethyl)-8-(methylsulfonyl)-5-nitro-3-(5,6,7-trimethoxyindol-2-carbonyl)-1,2-dihydro-3H-benzo[e]indole] | 265 °C | 4.85 | 2.5 | 4.96 | 4.2 |  |  |  | 
18 | COc1cc2cc(C(=O)N3CC(CCl)c4c3cc([N+](=O)[O-])c3ccc(S(N)(=O)=O)cc43)[nH]c2c(OC)c1OC (stereo not drawn) [Compound 48, 1-(Chloromethyl)-5-nitro-3-(5,6,7-trimethoxyindol-2-carbonyl)-1,2-dihydro-3H-benzo[e]indole-8-sulfonamide] | 264 to 266 °C (dec.) | 4.62 | 1.9 | 4.92 | 2.6 |  |  |  | 
19 | CC(=O)c1ccc2c3c(cc(N)c2c1)N(C(=O)c1cc2cc(OCCN(C)C)ccc2[nH]1)CC3CCl (stereo not drawn) [Compound 53, 7-Acetyl-5-amino-1-(chloromethyl)-3-{5-[2-(dimethylamino)ethoxy]indol-2-carbonyl}-1,2-dihydro-3H-benzo[e]indole] | 220 to 224 °C (dec.) |  |  |  |  | 8.12 | 1.5 | 7.96 | 1.4
20 | COC(=O)c1ccc2c3c(cc(N)c2c1)N(C(=O)c1cc2cc(OCCN(C)C)ccc2[nH]1)CC3CCl (stereo not drawn) [Compound 54, Methyl 5-amino-1-(chloromethyl)-3-{5-[2-(dimethylamino)ethoxy]indol-2-carbonyl}-1,2-dihydro-3H-benzo[e]indole-7-carboxylate] | 225 to 230 °C |  |  |  |  | 8.07 | 1.7 | 8.11 | 0.91
21 | CN(C)CCOc1ccc2[nH]c(C(=O)N3CC(CCl)c4c3cc(N)c3cc(C(N)=O)ccc43)cc2c1 (stereo not drawn) [Compound 55, 5-Amino-1-(chloromethyl)-3-{5-[2-(dimethylamino)ethoxy]indol-2-carbonyl}-1,2-dihydro-3H-benzo[e]indole-7-carboxamide] | 232 to 236 °C (dec.) |  |  |  |  | 7.21 | 1.4 | 7.89 | 1.0
22 | CN(C)CCOc1ccc2[nH]c(C(=O)N3CC(CCl)c4c3cc(N)c3cc(C#N)ccc43)cc2c1 (stereo not drawn) [Compound 56, 5-Amino-1-(chloromethyl)-3-{5-[2-(dimethylamino)ethoxy]indol-2-carbonyl}-1,2-dihydro-3H-benzo[e]indole-7-carbonitrile] | 250 to 255 °C (dec.) |  |  |  |  | 7.77 | 2.0 | 7.89 | 1.1
